Test results as given in patent US11952384B2, “Anti-tumor compound and preparation method and use thereof” (DUALITY BIOLOGICS (SUZHOU) CO., LTD., priority 2020, dated 2024).
pIC50: −log10 of the molar value. Where two headings read alike, the source gives them in different places.

How the values were obtained:
BCRP [1] = target: T1, BCRP (Homo sapiens, UniProt Q9UNQ0); assay: Study on transporter substrates in Caco-2 cell model; details: Caco-2; for efflux ratio at 2 h / recovery at 2 h: human; for efflux ratio at 2 h: Caco-2, Efflux ratio
T1 sequence (Q9UNQ0 1-655): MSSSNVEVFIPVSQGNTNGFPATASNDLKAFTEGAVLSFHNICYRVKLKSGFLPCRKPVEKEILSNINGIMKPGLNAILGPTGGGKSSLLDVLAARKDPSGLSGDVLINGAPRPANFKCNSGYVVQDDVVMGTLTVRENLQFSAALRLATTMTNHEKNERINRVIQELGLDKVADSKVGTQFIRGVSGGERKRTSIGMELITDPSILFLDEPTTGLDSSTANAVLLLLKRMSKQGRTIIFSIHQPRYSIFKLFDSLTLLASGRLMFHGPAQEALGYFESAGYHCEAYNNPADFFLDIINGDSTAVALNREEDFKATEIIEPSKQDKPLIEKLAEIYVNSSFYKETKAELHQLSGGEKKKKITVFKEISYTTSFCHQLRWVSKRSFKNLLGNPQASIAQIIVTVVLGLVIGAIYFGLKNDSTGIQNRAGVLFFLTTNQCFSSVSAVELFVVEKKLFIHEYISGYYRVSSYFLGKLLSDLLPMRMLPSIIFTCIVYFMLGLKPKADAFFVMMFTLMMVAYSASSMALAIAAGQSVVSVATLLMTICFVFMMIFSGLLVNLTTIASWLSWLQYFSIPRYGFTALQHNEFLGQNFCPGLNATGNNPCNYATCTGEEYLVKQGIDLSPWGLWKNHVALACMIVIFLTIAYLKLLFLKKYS

MDA-MB-231 cells = assay: Inhibition of in vitro proliferation of tumor cells by compounds (CTG, 6 days); format: cell-based; details: small molecule fragments, 6 days of culture, CTG, read-out: MDA-MB-231 IC50
Experimental: To test the inhibitory activity of the pharmaceutical compounds on the in vitro proliferation of NCI-N87, JIMT-1 and MBA-MB-231 tumor cells. The cells were treated with compounds at different concentrations in vitro, and after 6 days of culture, the proliferation of cells was detected using CTG (CellTiter-Glo® Luminescent Cell Viability Assay, Promega, Cat. No. G7558) reagents, and the in vitro activity of the compounds was evaluated according to the IC50 value. • 1. Culturing of cells: NCI-N87/JIMT-1/MBA-MB-231 cells were cultured in RPMI-1640 medium containing 10% FBS. • 2. Preparation of cells: NCI-N87/JIMT-1/MBA-MB-231 cells in logarithmic phase were taken, washed with PBS once, and digested with 2-3 mL of trypsin for 2-3 min. After the cells were digested completely, 10-15 mL of cell culture was added to elute the digested cells. The eluate was centrifuged at 1000 rpm for 5 min, and the supernatant was discarded. The resulting cells were resuspended in 10-20 mL of cell culture to obtain a single cell suspension. • 3. Cell plating: the NCI-N87/JIMT-1/MBA-MB-231 single cell suspension was mixed well and adjusted to a viable cell density of 6×10^4 cells/mL with cell culture. The cell suspension with the adjusted density was mixed well and added to a 96-well cell culture plate at 50 μL/well. The culture plate was incubated in an incubator for 18 h (37° C., 5% CO2). • 4. Preparation of compounds: the compounds were dissolved in DMSO to obtain stock solutions at an initial concentration of 10 mM. There were 8 concentrations in total for the small molecule compounds: 300 nM, 100 nM, 30 nM, 10 nM, 3 nM, 1 nM, 0.3 nM, and 0.1 nM. • 5. Sample adding: the prepared samples to be detected at different concentrations were added to the culture plate, and two duplicate wells were set for each sample. The culture plate was incubated in an incubator for 6 days (37° C., 5% CO2). • 6. Color developing: the 96-well cell culture plate was taken out, added with the CTG reagent at 50 μL/well, and incubated at room temperature for 10 min. • 7. Plate reading: the 96-well cell culture plate was taken out, placed in a microplate reader, and measured for the chemiluminescence using the microplate reader. Data analysis: data were processed and analyzed using Microsoft Excel and Graphpad Prism 5.

BCRP [2] = target: T1, BCRP; details: Caco-2
P-gp = target: T2, P-gp (Homo sapiens, UniProt P08183); assay: Study on transporter substrates in Caco-2 cell model; format: in vitro ADME; details: Caco-2
T2 construct: endogenous in cells; host or cells: Caco-2
T2 sequence (P08183 whole entry): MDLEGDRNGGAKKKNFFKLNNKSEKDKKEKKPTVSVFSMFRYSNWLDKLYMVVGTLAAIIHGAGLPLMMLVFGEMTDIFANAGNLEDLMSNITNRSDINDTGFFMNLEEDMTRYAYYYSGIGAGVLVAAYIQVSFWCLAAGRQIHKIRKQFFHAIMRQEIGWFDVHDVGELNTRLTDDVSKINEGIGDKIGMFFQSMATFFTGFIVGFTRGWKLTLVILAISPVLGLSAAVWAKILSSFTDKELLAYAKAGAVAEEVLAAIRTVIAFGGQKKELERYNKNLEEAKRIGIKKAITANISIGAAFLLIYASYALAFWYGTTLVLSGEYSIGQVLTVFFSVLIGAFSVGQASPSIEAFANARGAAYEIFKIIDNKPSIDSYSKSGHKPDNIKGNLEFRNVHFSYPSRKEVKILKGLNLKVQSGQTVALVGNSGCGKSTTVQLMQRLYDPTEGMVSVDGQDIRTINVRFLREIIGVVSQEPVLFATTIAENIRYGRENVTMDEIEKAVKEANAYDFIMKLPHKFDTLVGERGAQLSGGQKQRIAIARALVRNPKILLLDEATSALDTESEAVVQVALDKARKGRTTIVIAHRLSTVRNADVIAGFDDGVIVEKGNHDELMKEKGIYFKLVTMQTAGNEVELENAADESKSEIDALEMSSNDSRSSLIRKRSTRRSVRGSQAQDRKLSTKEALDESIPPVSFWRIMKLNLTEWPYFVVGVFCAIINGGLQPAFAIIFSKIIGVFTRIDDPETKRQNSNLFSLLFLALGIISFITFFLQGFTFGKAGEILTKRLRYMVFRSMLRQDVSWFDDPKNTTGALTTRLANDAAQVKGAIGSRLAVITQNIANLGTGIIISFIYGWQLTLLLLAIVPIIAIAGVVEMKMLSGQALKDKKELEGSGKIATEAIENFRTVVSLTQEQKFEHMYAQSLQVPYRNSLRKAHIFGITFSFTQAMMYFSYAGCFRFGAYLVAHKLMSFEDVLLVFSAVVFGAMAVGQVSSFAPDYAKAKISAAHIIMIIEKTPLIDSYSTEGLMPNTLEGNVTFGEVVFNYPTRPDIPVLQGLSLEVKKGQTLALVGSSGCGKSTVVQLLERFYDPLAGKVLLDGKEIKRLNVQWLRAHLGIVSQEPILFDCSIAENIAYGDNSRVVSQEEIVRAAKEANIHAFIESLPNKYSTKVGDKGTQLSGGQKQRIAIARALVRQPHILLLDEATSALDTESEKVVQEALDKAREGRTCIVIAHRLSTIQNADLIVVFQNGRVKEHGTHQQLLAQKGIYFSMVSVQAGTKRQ
Experimental: The resistance of each well was recorded. […] 2. […] The plate was vortexed for 10 min. The samples were centrifuged. […] HBSS was added to the basolateral compartment. […] 3. Data Analysis
Data were calculated using Microsoft Excel.

[3] = Caco-2, Recovery rate (%) AP-BL, KO143 −
[4] = Caco-2, Recovery rate (%) BL-AP, KO143 −
[5] = Caco-2, with KO143 (concentration not stated), Recovery rate (%) AP-BL, KO143 +
[6] = Caco-2, with KO143 (concentration not stated), Recovery rate (%) BL-AP, KO143 +
[7] = Homo sapiens, MDA-MB-231, 144 h, Table 2 (untitled), Test Example 2.2

In the case of `CC[C@@]1(O)C(=O)OCc2c1cc1n(c2=O)Cc2c-1nc1cc(F)c(C)c3c1c2[C@@H](NC(=O)[C@H]1C[C@@H](O)C1)CC3` [P-II-3, (1s,3R)-N-((1S,9S)-9-ethyl-5-fluoro-9-hydroxy-4-methyl-10,13-dioxo-2,3,9,10,13,15-hexahydro-1H,12H-benzo[de]pyrano[3′,4′:6,7]indolizino[1,2-b]quinolin-1-yl)-3-hydroxycyclobutane-1-carboxamide], the efflux ratio at 2 h (BCRP [1]; KO143 −) was 28.7, the recovery at 2 h (BCRP [1]; [3]) was 80.9% and the recovery at 2 h (BCRP [1]; [4]) was 77.5%. For the same molecule, the recovery at 2 h (BCRP [1]; [5]) was 76.9%, the recovery at 2 h (BCRP [1]; [6]) was 76.5% and the pIC50 (MDA-MB-231 cells; [7]) was 8.03. For the same molecule, the “Papp (A-B) (10^−6, cm/s)” value (BCRP [2]) was 0.20 10^−6, cm/s, the “Papp (B-A) (10^−6, cm/s)” value (BCRP [2]) was 5.52 10^−6, cm/s and the P-gp substrate (P-gp) was “neither transporter P-gp substrates nor transporter BCRP substrates”.
In the case of `CC[C@@]1(O)C(=O)OCc2c1cc1n(c2=O)Cc2c-1nc1cc(F)c(C)c3c1c2[C@@H](NC(=O)[C@H]1C[C@H](O)C1)CC3` [P-II-4, (1r,3S)-N-((1S,9S)-9-ethyl-5-fluoro-9-hydroxy-4-methyl-10,13-dioxo-2,3,9,10,13,15-hexahydro-1H,12H-benzo[de]pyrano[3′,4′:6,7]indolizino[1,2-b]quinolin-1-yl)-3-hydroxycyclobutane-1-carboxamide], the efflux ratio at 2 h (BCRP [1]; KO143 −) was 36.1, the recovery at 2 h (BCRP [1]; [3]) was 63.8% and the recovery at 2 h (BCRP [1]; [4]) was 64%. For the same molecule, the recovery at 2 h (BCRP [1]; [5]) was 65%, the recovery at 2 h (BCRP [1]; [6]) was 63% and the pIC50 (MDA-MB-231 cells; [7]) was 8.12. The “Papp (A-B) (10^−6, cm/s)” value (BCRP [2]) was 0.06 10^−6, cm/s, the “Papp (B-A) (10^−6, cm/s)” value (BCRP [2]) was 1.65 10^−6, cm/s and the P-gp substrate (P-gp) was “neither transporter P-gp substrates nor transporter BCRP substrates”.
For `CC[C@@]1(O)C(=O)OCc2c1cc1n(c2=O)Cc2c-1nc1cc(F)c(C)c3c1c2[C@@H](NC(=O)C1CCC(O)CC1)CC3` (single isomer, unassigned) [P-II-1], the “Recovery rate (%) AP-BL” value (BCRP [1]; KO143 −) was 80.87%, the efflux ratio at 2 h (BCRP [1]; KO143 −) was 28.7 and the recovery at 2 h (BCRP [1]; [4]) was 77.5%. It also gave a recovery at 2 h (BCRP [1]; [5]) of 76.9%, a recovery at 2 h (BCRP [1]; [6]) of 76.5% and a pIC50 (MDA-MB-231 cells; [7]) of 7.89. The “Papp (A-B) (10^−6, cm/s)” value (BCRP [2]) was 0.20 10^−6, cm/s, the “Papp (B-A) (10^−6, cm/s)” value (BCRP [2]) was 5.52 10^−6, cm/s and the P-gp substrate (P-gp) was “neither transporter P-gp substrates nor transporter BCRP substrates”.
With `CC[C@@]1(O)C(=O)OCc2c1cc1n(c2=O)Cc2c-1nc1cc(F)c(C)c3c1c2[C@@H](NC(=O)C[C@@H](C)O)CC3` [P-III-20, (R)—N-((1S,9S)-9-ethyl-5-fluoro-9-hydroxy-4-methyl-10,13-dioxo-2,3,9,10,13,15-hexahydro-1H,12H-benzo[de]pyrano[3′,4′: 6,7]indolizino[1,2-b]quinolin-1-yl)-3-hydroxybutanamide] the pIC50 (MDA-MB-231 cells; Homo sapiens, MDA-MB-231, 144 h, Table 3, Test Example 2.3) was 8.18.
In the case of `CC[C@@]1(O)C(=O)OCc2c1cc1n(c2=O)Cc2c-1nc1cc(F)c(C)c3c1c2[C@@H](NC(=O)C1CCC(O)CC1)CC3` (single isomer, unassigned) [P-II-2], the “Recovery rate (%) AP-BL” value (BCRP [1]; KO143 +) was 62.42%, the “Recovery rate (%) BL-AP” value (BCRP [1]; KO143 +) was 62.86% and the Efflux ratio (BCRP [1]; KO143 −) was 30.08. For the same molecule, the “Recovery rate (%) AP-BL” value (BCRP [1]; KO143 −) was 59.32%, the “Recovery rate (%) BL-AP” value (BCRP [1]; KO143 −) was 58.51% and the pIC50 (MDA-MB-231 cells; Table 2 (untitled), Test Example 2.2) was 7.71. For the same molecule, the “Papp (A-B) (10^−6, cm/s)” value (BCRP [2]) was 0.07 10^−6, cm/s, the “Papp (B-A) (10^−6, cm/s)” value (BCRP [2]) was 1.70 10^−6, cm/s and the P-gp substrate (P-gp) was “neither transporter P-gp substrates nor transporter BCRP substrates”.
